# Measured values: patent US6603023B2 (priority 1996, dated 2003)
# Several values for one entry are separate records, joined by “and”; a condition that tells them apart may be missing. Identical values can stand only once. Counter-ions that a name gives are not always drawn. Like-named read-outs stand apart in the source and are kept apart here. Marks after values point to notes of the source that are not given here.
# Columns and labels:
# B16 Melanoma = format: in vivo, B6D2F1 mice
# [1] = Toxicity in normal nude mice; format: in vivo, athymic nude mice; conditions: for mice died of toxicity: epothilone B 0.6 mg/kg QDx4 i.p.
# Protocol: For in vivo studies, paclitaxel in Cremophor-EtOH was further diluted with DMSO as needed. Vinblastine sulfate (Velban) (Eli Lilly & Co. Indianapolis, Ind.), and doxorubicin or adriamycin HCl (DX or Adr) (Pharmacia, Columbus, Ohio) in saline were diluted with DMSO as needed. DMSO was used as a vehicle for epothilones. Each mouse received ≦40 μL DMSO in all experiments.
# The toxicity of EpoB and dEpoB was compared in normal athymic nude mice on the daily i.p. schedule. EpoB at 0.6 mg/kg, QDX4, i.p. led to lethality in all eight mice. […] Similar leukopenia was found with paclitaxel. Some obstructive fecal mass in the large intestine was noted following Epo treatments in the preliminary study.
# DC-3F/ADII = experiment: SRB cytotoxicity, DC-3F/ADII; format: cell-based, hamster; conditions: Mesocricetus auratus, DC3F
# Procedure, shortened: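 Cell protein content measured by sulforhodamine B staining after trichloroacetic acid fixation, read at 570 nm; duplicate runs of six to seven concentrations fitted by median-effect analysis. Lines are actinomycin D-resistant DC-3F hamster lung sublines (ADII, ADX), kept under selecting drug in RPMI 1640-10% FBS.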
# CCRF-CEM/VBL = CCRF-CEM/VBL xenograft in nude mice, i.v. 6 h infusion; format: in vivo; conditions: CCRF/VBL Leukemia; dEpoB 30 mg/kg Q2D x 5, Taxol 15 mg/kg Q2D x 5
# Text: Treatment on days 19, 21, 23, 25, 27, 39, 41, 43, 45, 47 and 53.
# CCRF-CEM = experiment: Drug combination analysis (combination index, XTT, 72 h); format: cell-based; conditions: Homo sapiens, median-effect parameter, read-out: Dm (IC50)
# in vivo = conditions: male, athymic nude (nu/nu), outbred, Swiss background, mouse, in vivo, ip
# Protocol: (§1) DMSO was used as a vehicle for epothilones. Each mouse received ≦40 μL DMSO in all experiments.
# (§2) Athymic nude mice (nu/nu) were used for MX-1 and MCF-7/Adr human mammary carcinoma xenografts. Mice were obtained from Taconic Laboratory Animals and Service (Germantown, N.Y.: outbred, Swiss background).
# [2] = system: MDR human mammary adenocarcinoma MCF-7/Adr xenograft; experiment: in vivo
# Protocol: as §1, §2
# [3] = system: human ovarian UL3-C tumor; experiment: UL3-C ovarian tumor xenograft
# [4] = 0.4 mg/kg QD × 6 from day 1, day 5
# [5] = 0.4 mg/kg QD × 6 from day 1, day 9
# [6] = 0.4 mg/kg QD × 6 from day 1, day 11
# [7] = 0.8 mg/kg QD × 5 from day 1, day 5
# [8] = 0.8 mg/kg QD × 5 from day 1, day 7
# [9] = 0.8 mg/kg QD × 5 from day 1, day 11
# [10] = MCF-7/Adr Breast, dEpoB 30 mg/kg Q2D x 5, Taxol 24 mg/kg Q2D x 5
# [11] = Taxol 24 mg/kg, 6 hr i.v. infusion Q2D x 5 (day 8-16)
# [12] = dEpo B 30, Taxol 15 mg/kg, 6 hr i.v. infusion Q2D x 5 (day 8-16)
# [13] = high doses: Taxol 12, Adriamycin 3, Camptothecin 3.0 mg/kg i.p. day 8,10,12,14,16
# [14] = male, athymic nude (nu/nu), outbred, Swiss background, mouse, in vivo
# [15] = UL3-C Ovary, dEpoB 30 mg/kg Q2D x 5, Taxol 15 mg/kg Q2D x 5
# [16] = dEpoB 30, Taxol 20 mg/kg, i.v. infusions on day 19,21,23,25,27
smiles,measurement,setting,value
"C/C(=C\c1csc(C)n1)[C@@H]1C[C@@H]2O[C@]2(C)CCC[C@H](C)[C@H](O)[C@@H](C)C(=O)C(C)(C)[C@@H](O)CC(=O)O1 [Epothilone B, epothilone B]",# Mice Died,B16 Melanoma; 0.4 mg/kg QD × 6 from day 1,1/8
same,Average weight change,"B16 Melanoma; 0.4 mg/kg QD × 6 from day 1, day 3",-0.2 g
same,Average Tumor Volume (T/C),B16 Melanoma; [4],1.08
same,Average weight change,B16 Melanoma; [4],-0.6 g
same,Average weight change,"B16 Melanoma; 0.4 mg/kg QD × 6 from day 1, day 7",-1.1 g
same,Average Tumor Volume (T/C),B16 Melanoma; [5],1.27
same,Average weight change,B16 Melanoma; [5],-3.4 g
same,Average Tumor Volume (T/C),B16 Melanoma; [6],1.07
same,Average weight change,B16 Melanoma; [6],-3.9 g
same,mice died of toxicity,B16 Melanoma; 0.4 mg/kg QDx6 from day 1 (FIG. 44),1 of 8
same,Average weight change,"B16 Melanoma; 0.8 mg/kg QD × 5 from day 1, day 3",0 g
same,Average Tumor Volume (T/C),B16 Melanoma; [7],0.57
same,Average weight change,B16 Melanoma; [7],-0.8 g
same,Average Tumor Volume (T/C),B16 Melanoma; [8],0.89
same,Average weight change,B16 Melanoma; [8],-3.1 g
same,Average weight change,"B16 Melanoma; 0.8 mg/kg QD × 5 from day 1, day 9",-4.7 g
same,Average Tumor Volume (T/C),B16 Melanoma; [9],0.21
same,Average weight change,B16 Melanoma; [9],-4.7 g
same,mice died,B16 Melanoma; 0.8 mg/kg QDx5 from day 1 (FIG. 44),5 of 8
same,Died,"[1]; 0.6 mg/kg QD × 4, 8 mice",8
same,Disappearance Duration,"[1]; 0.6 mg/kg QD × 4, 8 mice",8
same,Number of mice died,"[1]; 0.6 mg/kg, QD × 4, i.p., 8 mice",8*
same,body weight course,[1]; EpoB 0.6 mg/kg QDx4 i.p.,steady decreases in body weight until death
same,decrease in lymphocytes,"[1]; EpoB 0.6 mg/kg or dEpoB 25 mg/kg, QDx4, i.p., preliminary",43%
same,mice died of toxicity,[1]; 8 mice,all eight and 8 of 8
same,mice died of toxicity,"[1]; 8 mice, listed as EpoB",all eight
same,reduction in average body weight,[1]; epothilone B 0.6 mg/kg i.p. for 4 days,33%
"CC(=O)O[C@H]1C(=O)[C@@]2(C)[C@H]([C@H](OC(=O)c3ccccc3)[C@]3(O)C[C@H](OC(=O)[C@H](O)[C@@H](NC(=O)c4ccccc4)c4ccccc4)C(C)=C1C3(C)C)[C@]1(OC(C)=O)CO[C@@H]1C[C@@H]2O [Taxol ®, paclitaxel]",IC50,DC-3F/ADII,3200 nM
same,Lowest Average Tumor Size (T/C),CCRF-CEM/VBL,0.76 T/C
same,Tumor Disappearance,CCRF-CEM/VBL,0
same,IC50,CCRF-CEM,1.09 nM
same,LD50,in vivo,12 mg/kg
same,Lowest Average Tumor Size (T/C),[2]; [10],0.71 T/C
same,Tumor Disappearance,[2]; [10],0
same,tumor size reduction,"[2]; Taxol 6 mg/kg i.p. Q2Dx5, day 17",100%
same,"Average Body Weight (change), Day 14",[2]; [11],-4.8 g
same,"Average Body Weight (change), Day 16",[2]; [11],-5.3 g
same,"Average Body Weight (change), Day 18",[2]; [11],-6.0 g
same,"Average Tumor Size (T/C), Day 14",[2]; [11],0.73 T/C
same,"Average Tumor Size (T/C), Day 16",[2]; [11],0.71* T/C
same,"Average Tumor Size (T/C), Day 18",[2]; [11],0.73* T/C
same,"Average Tumor Size (T/C), Day 14",[2]; [12],0.81 T/C
same,"Average Tumor Size (T/C), Day 16",[2]; [12],0.89 T/C
same,"Average Tumor Size (T/C), Day 18",[2]; [12],0.76 T/C
same,"Average Tumor Volume (T/C), Day 11",[2]; [13],0.50 T/C
same,"Average Tumor Volume (T/C), Day 13",[2]; [13],0.51 T/C
same,"Average Tumor Volume (T/C), Day 15",[2]; [13],0.32 T/C
same,"Average Tumor Volume (T/C), Day 17",[2]; [13],0.40 T/C
same,Toxicity Death,[2]; [14],0/4
same,lethality,[2]; [14],3/7
same,tumor growth suppression,[2]; paclitaxel 5 mg/kg (so in the source),slight growth suppression
same,Lowest Average Tumor Size (T/C),[3]; [15],0.04 T/C
same,Tumor Disappearance,[3]; [15],0
same,"Average Body Weight (change), Day 33",[3]; [16],-2.7 g
same,"Average Body Weight Change, Day 27",[3]; [16],-2.9 g
same,"Average Body Weight Change, Day 29",[3]; [16],-3.3 g
same,"Average Body Weight Change, Day 31",[3]; [16],-2.4 g
same,"Average Tumor Size (T/C), Day 27",[3]; [16],0.10 T/C
same,"Average Tumor Size (T/C), Day 29",[3]; [16],0.08 T/C
same,"Average Tumor Size (T/C), Day 31",[3]; [16],0.03 T/C
same,"Average Tumor Size (T/C), Day 33",[3]; [16],0.04 T/C
same,"Average Body Weight, Day 19","[3]; initial weight, dEpoB 30, Taxol 20 mg/kg, i.v. infusions on day 19,21,23,25,27",31.3 g
"CC[C@]1(O)C[C@@H]2CN(CCc3c([nH]c4ccccc34)[C@@](C(=O)OC)(c3cc4c(cc3OC)N(C)[C@H]3[C@@](O)(C(=O)OC)[C@H](OC(C)=O)[C@]5(CC)C=CCN6CC[C@]43[C@@H]65)C2)C1 [Vinblastine, Vinblastine sulfate]",IC50,DC-3F/ADII,78.9 nM
same,IC50,CCRF-CEM,0.61 nM
